Results taken from ChEMBL document CHEMBL1156829 (Proc Natl Acad Sci U S A, 2008).

Tests used:
Plasmodium falciparum [1] = experiment: NOVARTIS: Inhibition of Plasmodium falciparum 3D7 (drug-susceptible) proliferation in erythrocyte-based infection assay; type: functional, organism-based; settings: Plasmodium falciparum, 3D7
Plasmodium falciparum [2] = experiment: NOVARTIS: Inhibition of Plasmodium falciparum W2 (drug-resistant) proliferation in erythrocyte-based infection assay; type: functional, organism-based; settings: Plasmodium falciparum, W2; read-out: EC50
[3] = NOVARTIS: Cytotoxicity against human hepatocellular carcinoma cell line (Huh7); type: toxicity, cell-based, Huh-7; settings: Huh7 cells (hepatocellular carcinoma cell line)

Row | Structure (SMILES) | EC50 (Plasmodium falciparum [1]) [nM] | EC50 (Plasmodium falciparum [2]) [nM] | CC50 [3] [nM]
1 | Cc1ccc2[nH]c3c(NCCN4CCCCC4)ncnc3c2c1 | 216 | 99 | 39700
2 | CC(=O)c1c(C)n(CC(=O)Nc2cccc(C)c2)c2ccccc12 | 329 | 248 | > 100000
3 | CCOc1ccc(NC(=O)c2ccc(F)c(S(=O)(=O)NC3CCCCCC3)c2)cc1 | 1350 | 135 | 54800
4 | Oc1ccc(-c2ccnc3cc(Cl)ccc23)cc1CNC1CN2CCC1CC2 (stereo not given) | 986 | < 24.1 | > 10000
5 | CCCCC(=O)NC(c1ccccc1)c1ccc2cccnc2c1O (stereo not given) | 387 | 239 | > 100000
6 | CCN(CC)Cc1cc2ccc(C)cc2n(CC(=O)OC)c1=O | > 1250 | 26.7 | > 10000
7 | CCc1c(C)c(C#N)c2nc3ccccc3n2c1NCc1ccccc1 | 787 | 238 | > 100000
8 | O=C(NCC1CCCO1)c1cnc(NCCCn2ccnc2)nc1NCCc1ccccc1 (stereo not given) | 1010 | 26.7 | > 10000
9 | CC(C)C(=O)N1CCOc2c(cc(-c3csc4ccccc34)cc2OCCc2ccccn2)C1 | 183 | 125 | 50600
10 | O=[N+]([O-])c1cccc2c1nnn2C12CC3CC(CC(O)(C3)C1)C2 | 536 | 245 | > 100000
11 | Nc1noc2cccc(OC3CCNCC3)c12 | 1030 | < 24.5 | > 10000
12 | CCN1C=CC(=Cc2ccc3cc(C)ccc3[n+]2C)C=C1 | 170 | 140 | > 58000
13 | N#Cc1ccc(CNC(=S)Nc2cc(Cl)ccc2Cl)cc1 | 421 | 238 | > 100000
14 | CC1=C(C(=O)OC2CCCC2)C(c2ccccc2F)C2=C(CC(c3ccccc3)CC2=O)N1 (stereo not given) | 541 | 259 | > 100000
15 | CCCCNC(=O)CSCc1cnn(-c2ccccc2)c1-n1cccc1 | 253 | 257 | > 100000
16 | Oc1ccc(-c2ccnc3cc(Cl)ccc23)cc1CNC1CCCCC1 | 119 | 15.2 | 5940
17 | O=[N+]([O-])c1ccc(-n2ncc(-c3nc(-c4ccc(Cl)cc4)no3)c2C(F)(F)F)cc1 | > 1210 | 26.7 | > 10000
18 | COc1cc(C2CC(=O)NC(C)=C2C(=O)OC(C)C)c(OC)cc1Br (stereo not given) | 1030 | 242 | > 100000

Row | Structure (SMILES) | EC50 (Plasmodium falciparum [1]) [nM] | EC50 (Plasmodium falciparum [2]) [nM] | CC50 [3] [nM]
19 | N#Cc1c2c(c(N3CCN(Cc4ccccc4)CC3)n3c1nc1ccccc13)CCC2 | 311 | 248 | > 100000
20 | CCOC(=O)C1=C(C)NC2=C(C(=O)C(C(=O)OCC)C(c3ccccc3OC)C2)C1c1cccs1 (stereo not given) | 1830 | 241 | > 100000
21 | CN(C)C=Nc1nn(C)cc1C(=O)Nc1ccc(F)c(Cl)c1 | > 7010 | 264 | > 100000
22 | Cc1ccccc1CN1CCN(C/C=C/c2ccccc2)CCC1=O | > 1250 | 26.7 | > 10000
23 | CCCCCCCCC(=O)Nc1c(C)cccc1C | > 1250 | 26.7 | > 10000
24 | Cc1ccccc1C=NNc1nc2ccccc2[nH]1 | 605 | 249 | > 100000
25 | CCOc1c(Br)cc(C2C(C(=O)OC)=CN(C)C=C2C(=O)OC)cc1OC | 292 | 263 | > 100000
26 | CCN(CC)CCNC(=O)c1cc(-c2ccc(Cl)cc2)cc(-n2cnnn2)c1 | 644 | < 26.1 | > 10000
27 | CC[n+]1cccc2ccc3cccnc3c21 | 553 | 257 | > 100000
28 | COc1cc(OC)cc(C(=O)NCc2n[nH]c(=S)n2-c2ccc(Br)cc2)c1 | 325 | 252 | > 100000
29 | O=C(Nc1ccc2nc3n(c(=O)c2c1)CCCCC3)C(=O)N1CCN(c2cccc(Cl)c2)CC1 | 1810 | 250 | > 100000
30 | Cc1ccn2c(NC(C)(C)CC(C)(C)C)c(-c3ccccc3OC(=O)c3ccc4c(c3)OCO4)nc2c1 | 831 | 24.1 | > 10000
31 | CC(C)(C)OCCN(CC(O)CN(Cc1ccccc1)C(=O)NC(c1ccccc1)c1ccccc1)S(=O)(=O)c1ccccc1 (stereo not given) | 1100 | < 26.4 | > 10000
32 | CCN(CC)C(=O)c1cn(C2CCN(C(=O)CCc3cccc(OC)c3)CC2)nn1 | > 1250 | 26.7 | > 10000
33 | CC(=O)N1c2ccccc2NC2=C(C(=O)CCC2)C1c1ccc([N+](=O)[O-])cc1 (stereo not given) | > 1250 | 26.7 | > 10000
34 | CCCCN(CCCC)CCCNc1ncnc2c1[nH]c1ccc(Cl)cc12 | 230 | 162 | 61800
35 | c1ccc2c(c1)[nH]c1ccc3ccncc3c12 | 85.3 | 24.2 | > 10000
